Test results from PubChem BioAssay (NCI).
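Growth conditions: 96-well plates. Treatment: test compound, 48 hours, 5 concentrations. Analysis: linear interpolation between bracketing concentrations; unreached endpoints set to highest concentration. At the GI50, growth is halved. The concentration for full growth arrest is given as TGI.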

Columns and labels:
Assay in all cases: NCI-60 cell line screen, 48 h
786-0 renal = tested on: 786-0 renal
A498 renal = tested on: A498 renal
A549 NSCLC = tested on: A549 NSCLC
ACHN renal = tested on: ACHN renal
BT-549 breast = tested on: BT-549 breast
CAKI-1 renal = tested on: CAKI-1 renal
CCRF-CEM leukemia = tested on: CCRF-CEM leukemia
COLO 205 colon = tested on: COLO 205 colon
DU-145 prostate = tested on: DU-145 prostate
EKVX NSCLC = tested on: EKVX NSCLC
HCC-2998 colon = tested on: HCC-2998 colon
HCT-15 colon = tested on: HCT-15 colon
HL-60(TB) leukemia = tested on: HL-60(TB) leukemia
HOP-62 NSCLC = tested on: HOP-62 NSCLC
HOP-92 NSCLC = tested on: HOP-92 NSCLC
HS 578T breast = tested on: HS 578T breast
HT29 colon = tested on: HT29 colon
IGROV1 ovarian = tested on: IGROV1 ovarian
K-562 leukemia = tested on: K-562 leukemia
KM12 colon = tested on: KM12 colon
LOX IMVI melanoma = tested on: LOX IMVI melanoma
M14 melanoma = tested on: M14 melanoma
MALME-3M melanoma = tested on: MALME-3M melanoma
MCF7 breast = tested on: MCF7 breast
MDA-MB-231 breast = tested on: MDA-MB-231 breast
MDA-MB-435 = tested on: MDA-MB-435
MDA-MB-468 breast = tested on: MDA-MB-468 breast
MOLT-4 leukemia = tested on: MOLT-4 leukemia

C=C1CCC2C3(C)COC(c4ccccc4F)OC3CCC2(C)C1C/C=C1/C(=O)OCC1O (stereo unspecified)
GI50 (786-0 renal): 2.02 µM | TGI (786-0 renal): 3.69 µM | GI50 (A498 renal): 20.1 µM | TGI (A498 renal): 37.3 µM | GI50 (A549 NSCLC): 4.4 µM | TGI (A549 NSCLC): 94 µM | GI50 (ACHN renal): 1.85 µM | TGI (ACHN renal): 3.34 µM | GI50 (BT-549 breast): 2.6 µM | TGI (BT-549 breast): 5.76 µM | GI50 (CAKI-1 renal): 3.84 µM | TGI (CAKI-1 renal): 13.3 µM | GI50 (CCRF-CEM leukemia): 1.81 µM | TGI (CCRF-CEM leukemia): 6.53 µM | GI50 (COLO 205 colon): 2.96 µM | TGI (COLO 205 colon): 8.38 µM | GI50 (DU-145 prostate): 4.09 µM | TGI (DU-145 prostate): 15.1 µM | GI50 (EKVX NSCLC): 15.4 µM | TGI (EKVX NSCLC): 30.3 µM | GI50 (HCC-2998 colon): 5.12 µM | TGI (HCC-2998 colon): 17.8 µM | GI50 (HCT-15 colon): 1.85 µM | TGI (HCT-15 colon): 4.52 µM | GI50 (HL-60(TB) leukemia): 1.65 µM | TGI (HL-60(TB) leukemia): 5.48 µM | GI50 (HOP-62 NSCLC): 15.8 µM | TGI (HOP-62 NSCLC): 35.1 µM | GI50 (HOP-92 NSCLC): 3.65 µM | TGI (HOP-92 NSCLC): 14.6 µM | GI50 (HS 578T breast): 4.4 µM | TGI (HS 578T breast): 47.9 µM | GI50 (HT29 colon): 1.9 µM | TGI (HT29 colon): 3.85 µM | GI50 (IGROV1 ovarian): 5.66 µM | TGI (IGROV1 ovarian): 19.7 µM | GI50 (K-562 leukemia): 3.04 µM | TGI (K-562 leukemia): > 100 µM | GI50 (KM12 colon): 2.99 µM | TGI (KM12 colon): 10.3 µM | GI50 (LOX IMVI melanoma): 1.57 µM | TGI (LOX IMVI melanoma): 2.92 µM | GI50 (M14 melanoma): 4.24 µM | TGI (M14 melanoma): 19.2 µM | GI50 (MALME-3M melanoma): 7.35 µM | TGI (MALME-3M melanoma): 21.8 µM | GI50 (MCF7 breast): 1.83 µM | TGI (MCF7 breast): 5.45 µM | GI50 (MDA-MB-231 breast): 2.41 µM | TGI (MDA-MB-231 breast): 5.41 µM | GI50 (MDA-MB-435): 2.25 µM | TGI (MDA-MB-435): 5.79 µM | GI50 (MDA-MB-468 breast): 1.62 µM | TGI (MDA-MB-468 breast): 3.63 µM | GI50 (MOLT-4 leukemia): 3.31 µM | TGI (MOLT-4 leukemia): 17.2 µM
